# Test results taken from publication PMC6646369, “A new bioavailable fenretinide formulation with antiproliferative, antimetabolic, and cytotoxic effects on solid tumors” (Cell Death & Disease, 2019).
# Legend:
# Format in all cases: cell-based, human
# [1] = tested on: LCSC6 lung cancer spheroid cells; assay: Cell viability assay (CellTiter-Glo)
# Method: (§1) Briefly, lung and colorectal spheroids were dissociated mechanically or with TrypLE Express (Thermo Fisher Scientific) respectively and seeded 3 × 10^3 per well in 96-well plates (three replicates per experimental point) in serum-free medium, and incubated in a humidified atmosphere at 37 °C, 5% CO2. Cells were treated with the respective compounds and analysed after the appropriate time period as described in detail in Figure Legends. Luminescence was detected with a DTX880 multimode microplate reader (Beckman Coulter, Brea, CA, USA).
# [2] = tested on: CSC 7 colorectal spheroid cells; assay: Cell viability assay (CellTiter-Glo)
# Method: as §1, with “Cell viability upon treatment with NanoFEN, zVAD, NAC, 3-MA, Myriocin, PPMP, GT11, SA and Rapamycin was determined by CellTiter-Glo luminescent cell viability assay (Promega, Madison, WI, USA) according to the manufacturer’s directions. Briefly,” for “Briefly,”
# [3] = tested on: reactive oxygen species (ROS) in LCSC6; assay: Measurement of intracellular ROS levels (CM-H2DCFDA, flow cytometer); details: LCSC6, NAC 2mM for 1h, then NanoFEN 4,9µM for 48 hours
# Method: An equal number of dissociated spheroid cells (2.5 × 10^5) were seeded in 6-well cell culture plates. Briefly, each cell line was incubated with NanoFEN at IC50 concentration and pre-treated for 1 h with the antioxidant N-Acetyl-Cysteine (NAC). At different times, the cells were washed twice with pre-warmed Phosphate Saline Buffer (PBS) and then incubated in the same buffer containing 5 μM CM-H2DCFDA with DMSO alone at 37 °C. The fluorescence intensity of DCF was measured at 527 nm emission wavelength after excitation at 492 nm at 1 h intervals for up to 48 h using a Flow Cytometer Accuri (Becton Dickinson). An increase in fluorescence intensity as arbitrary units indicated the net generation of intracellular ROS.
# [4] = tested on: Aldefluor activity (ALDH) in LCSC6; assay: Cytofluorimetric analysis of Aldefluor activity; details: LCSC6, representative analysis; NanoFEN at IC50 dose, Gemcytabine 25 µM; CTRL 38,6%
# Method: Values represent mean ± SD of three independent experiments. **P < 0.01; ***P < 0.001 from two-tailed t-test. d Schematic representation of stem-like factors (repressed in grey) emerged from RPPA analysis of lung CSCs treated as described in Fig. 4a. e Cytofluorimetric analysis of Aldefluor activity on LCSC6 treated with NanoFEN at IC50 dose and Gemcytabine 25 μM for 48 h. Values represent mean ± SD of three independent experiments. **P < 0.01; ***P < 0.001 from two-tailed t-test. f qRT-PCR analysis of indicated genes on whole tumor lysates derived from LCSC6 xenografts, untreated or treated with NanoFEN 30 mg/Kg/week and Cis 3 mg/Kg/week and Gem 60 mg/Kg/week (Cis + Gem). Values represent mean ± SD of three independent experiments. *P < 0.05; **P < 0.01 from two-tailed t-test. g Flow cytometry analysis of TOP-GFP.mc-transduced CSC7, untreated and treated with NanoFEN at the IC50 dose 0.2 μM and OXA 10 μM for 48 h. Values represent mean ± SD of three independent experiments. **P < 0.01 from two-tailed t-test. h Volume of xenografts derived from CSC10 transduced with TOP-GFP.mc untreated (black downward triangles) or treated with vehicle or treated NanoFEN 30 mg/Kg/week (green upward triangles) and OXA 5 mg/Kg/week plus 5FU 12.5 mg/Kg/week (red squares). […]
# [5] = tested on: LCSC2 lung cancer spheroid cells; assay: Cell viability assay (CellTiter-Glo); details: LCSC2, GT11 0,5µM plus SA 2µM plus Rapamycin 10nM, 48 hours
# Method: as §1, with “Cell viability upon treatment with NanoFEN, zVAD, NAC, 3-MA, Myriocin, PPMP, GT11, SA and Rapamycin was determined by CellTiter-Glo luminescent cell viability assay (Promega, Madison, WI, USA) according to the manufacturer’s directions. Briefly,” for “Briefly,”
compound,measurement,setting,value
"CC(=O)N[C@@H](CS)C(=O)O [NAC, N-Acetyl-L-Cysteine]",effect on NanoFEN-induced death (cell viability),"[1]; LCSC6 pretreated with NAC 2 mM for 1 h, then NanoFEN 4.9 μM, 48 h",partially rescued
same,effect on NanoFEN-induced death (cell viability),"[2]; CSC7 pretreated with NAC 2 mM for 1 h, then NanoFEN 0.2 μM, 48 h",partially rescued
same,ROS levels in NanoFEN-treated cells after pretreatment,[3],reduced
"CCCCCCCCCCCCCCC[C@@H](O)[C@@H](N)CO [SA, sphinganine]",cell viability,"[1]; LCSC6, 48 hours, SA 2, 4, 6 µM, GT11 0,5, 2, 5 µM",dose-dependent viability decrease
CCCCCCC(=O)CCCCCC/C=C/C[C@@H](O)[C@H](O)[C@@](N)(CO)C(=O)O [myriocin],effect on NanoFEN-induced death (cell viability),"[1]; LCSC6, Myriocin 1 μM plus NanoFEN 4.9 μM, 48 h",partially protected
same,effect on NanoFEN-induced death (cell viability),"[2]; CSC7, Myriocin 1 μM plus NanoFEN 0.2 μM, 48 h",partially protected
"COC(=O)C[C@H](NC(=O)[C@H](C)NC(=O)[C@@H](NC(=O)OCc1ccccc1)C(C)C)C(=O)CF (racemic) [zVAD-fmk, z-Val-Ala-DL-Asp-fluoromethylketone]",effect on NanoFEN-induced toxicity (cell viability),"[1]; LCSC6 pretreated with zVAD 40 μΜ, then NanoFEN 4.9 μM, 48 h",did not substantially inhibit
same,effect on NanoFEN-induced toxicity (cell viability),"[2]; CSC7 pretreated with zVAD 40 μΜ, then NanoFEN 0.2 μM, 48 h",did not substantially inhibit
"Nc1ccn([C@@H]2O[C@H](CO)[C@@H](O)C2(F)F)c(=O)n1 [Gem, gemcitabine]",ALDH+,[4],"74,6%"
"CCCCCCCCCCCCCCCC(=O)NC(CN1CCOCC1)C(O)c1ccccc1 (stereo not shown) [PPMP, 1-phenyl-2-palmitoylamino-3-morpholino-1-propanol]",effect on NanoFEN-induced death (cell viability),"[1]; LCSC6, PPMP 10 μM plus NanoFEN 4.9 μM, 48 h",unable to block
same,effect on NanoFEN-induced death (cell viability),"[2]; CSC7, PPMP 10 μM plus NanoFEN 0.2 μM, 48 h",unable to block
CO[C@H]1C[C@@H]2CC[C@@H](C)[C@@](O)(O2)C(=O)C(=O)N2CCCC[C@H]2C(=O)O[C@H]([C@H](C)C[C@@H]2CC[C@@H](O)[C@H](OC)C2)CC(=O)[C@H](C)/C=C(\C)[C@@H](O)[C@@H](OC)C(=O)[C@H](C)C[C@H](C)/C=C/C=C/C=C/1C [rapamycin],effect on the toxic effects of the SA/GT11 combination (cell viability),"[1]; LCSC6, GT11 0.5 μM plus SA 2 μM plus Rapamycin 10 nM, 48 h",significantly potentiated
same,effect on the toxic effects of the SA/GT11 combination (cell viability),[5],significantly potentiated
same,effect on the toxic effects of the SA/GT11 combination (cell viability),"[2]; CSC7, GT11 0.5 μM plus SA 2 μM plus Rapamycin 10 nM, 48 h",significantly potentiated
"Cn1cnc(N)c2ncnc1-2 [3-MA, 3-Methyladenine]",effect on NanoFEN-induced death (cell viability),"[1]; LCSC6, 3-MA 5 mM plus NanoFEN 4.9 μM, 24 h",able to counteract
same,effect on NanoFEN-induced death (cell viability),"[2]; CSC7, 3-MA 5 mM plus NanoFEN 0.2 μM, 24 h",able to counteract
